# Square brackets hold non-standard residues; d marks the D form. Ends that are not written are not given here. Oic = O=C(O)[C@@H]1C[C@@H]2CCCC[C@@H]2N1; Tic = O=C(O)[C@@H]1Cc2ccccc2CN1
# Key:
# neutrophil elastase (NE) = biological target: T1, neutrophil elastase (NE) (Homo sapiens, UniProt P08246); test: Cross-reactivity labeling, neutrophil elastase; format: biochemical; details: protease 100 nM, probe 100 nM, 2 h, 37 °C, in-gel fluorescence
# T1 sequence (P08246 30-267): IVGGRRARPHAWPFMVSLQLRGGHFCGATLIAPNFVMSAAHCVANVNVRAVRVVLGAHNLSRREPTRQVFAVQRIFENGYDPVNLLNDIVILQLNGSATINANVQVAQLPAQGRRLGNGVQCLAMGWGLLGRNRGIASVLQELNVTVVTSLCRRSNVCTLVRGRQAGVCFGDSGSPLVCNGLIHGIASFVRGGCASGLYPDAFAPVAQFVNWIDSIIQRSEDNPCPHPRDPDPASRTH
# Experimental: Protease (100 nM) HNE PR3 GzmK GzmA
# Protease (100 nM) GzmA GzmK
# Supplementary Figure 2. Cross-reactivity of probes. (A) Labeling of GzmA, GzmK, PR3, and HNE
# (100 nM, 2 h, 37 °C) by 100 nM of 5 and 6. (B) Labeling of GzmA and GzmK (100 nM, 2 h, 37 °C) by
# 100 nM of 3 – 6. (C) Concentration-dependent labeling of GzmA and GzmK (100 nM, 2 h, 37 °C) by 5 and
# 6. Protein samples were analyzed by SDS-PAGE and in-gel fluorescence scanning for Cy5 signal.
# Protein loading was confirmed by SYPRO Ruby staining. […]
# [1] = test system: lysates of MDA‐MB‐231, HEK293T, Jurkat, and HeLa cells; test: Labeling in lysates of GzmA nonexpressing cells; format: biochemical; details: HeLa lysates 1 mg/mL, 1 h, 37 °C
# Experimental: Figure 4 Characterization of qABPs in native proteomes. A) Labeling of GzmA by 5 and 6 in lysates of various cell lines (1 h, 37 °C). B) Stability of 5 and 6 in buffer and cell media (11 h, 37 °C). The hydrolysis of probes was measured by monitoring the production of Cy5 fluorescence signal over time. […] C) Labeling of GzmA by probes 3 –6 in NK‐92 cells (2 h, 37 °C). D) Flow cytometry analysis of protein labeling in NK‐92 cells by 3 –5. […] E) Flow cytometry analysis of concentration‐dependent GzmA labeling in NK‐92 cells and S/N of 5 (5 μM, 2 h, 37 °C). […]
# Briefly, hGzmA (50 nM) was incubated with either inhibitor 1 or 2 (200 nM), and GzmA fluorogenic substrate […] (100 µM) in 50 mM Tris, 150 mM NaCl, 0.01% Triton X-100 (pH 8) for 15 hr at 37 °C. Recorded fluorescence at Ex/Em: 380/460 nm for residual GzmA […]
# Cat. No. CRL-2570) and 4T1 (ATCC Cat. No. CRL-2539) cells were cultured in RPMI supplemented with 10% fetal bovine serum (FBS), 1% penicillin/streptomycin (PS), and 2 mM L-glutamine, while HEK293T and MDA-MB-231 cells (ATCC Cat. No. HTB-26) were cultured in DMEM supplemented likewise as described above. […] The supernatant was collected, and protein concentration was measured using a Pierce BCA protein assay. […]
# C. In-gel fluorescence imaging […]
Substance,Labeling of NE (cross-reactivity) (neutrophil elastase (NE)),Cross-reactivity in lysates of GzmA nonexpressing cells [1]
IGNR [compound 5],Neither probe 5 nor 6 showed detectable labeling,no detectable cross‐reactivity
[Tic]G[Oic]R [compound 6],Neither probe 5 nor 6 showed detectable labeling,no detectable cross‐reactivity

# — PMC12703428, “Development of Granzyme A Turn‐ON Fluorescent Activity‐Based Probes” (Chembiochem, 2025)
